# Data published in patent US20070093520A1, “Method of treatment of diarrhea-predominant irritable bowel syndrome in a subject” (priority 2005, published 2007).
# Tested on: diarrhea-predominant IBS subjects
# Assay: 3007 Study: open-label 52-week safety study, adverse events and withdrawals
# Settings: Study 3007
smiles,measurement,setting,value
"Cc1nccn1C[C@H]1CCc2c(c3cccc4c3n2CCC4)C1=O [cilansetron, (R)-(−)-4,5,6,8,9,10-hexahydro-10-[(2-methyl-1H-imidazol-1-yl)methyl]-11H-pyrido-[3,2,1-jk]-carbazol-11-one]",SAE: Hepatobiliary Disorders,P/C,0 n (%)
same,SAE: Immune System Disorders,P/C,1 (<1%) n (%)
same,SAE: Infections and Infestations,P/C,2 (<1%) n (%)
same,"SAE: Injury, Poisoning and Procedural Complications",P/C,0 n (%)
same,SAE: Irritable Bowel Syndrome Aggravated,P/C,0 n (%)
same,SAE: Leiomyoma NOS,P/C,0 n (%)
same,SAE: Loss of Consciousness,P/C,0 n (%)
same,SAE: Myocardial Infarction,P/C,0 n (%)
same,"SAE: Neoplasms Benign, Malignant and Unspecified (Incl Cysts and Polyps)",P/C,3 (1%) n (%)
same,SAE: Nervous System Disorders,P/C,0 n (%)
same,SAE: Non-Accidental Overdose,P/C,0 n (%)
same,SAE: Ovarian Cancer NOS*,P/C,0 n (%)
same,SAE: Ovarian Cystadenofibroma*,P/C,1 (<1%) n (%)
same,SAE: Pregnancy NOS*,P/C,0 n (%)
same,"SAE: Pregnancy, Puerperium and Perinatal Conditions",P/C,0 n (%)
same,SAE: Psychiatric Disorders,P/C,1 (<1%) n (%)
same,SAE: Psychotic Disorder NOS,P/C,1 (<1%) n (%)
same,SAE: Renal and Urinary Disorders,P/C,1 (<1%) n (%)
same,SAE: Reproductive System and Breast Disorders,P/C,0 n (%)
same,"SAE: Respiratory, Thoracic and Mediastinal Disorders",P/C,1 (<1%) n (%)
same,SAE: Sinusitis Acute NOS,P/C,1 (<1%) n (%)
same,SAE: Status Epilepticus,P/C,0 n (%)
same,SAE: Suicidal Ideation,P/C,1 (<1%) n (%)
same,SAE: Supraventricular Tachycardia,P/C,1 (<1%) n (%)
same,SAE: Urinary Tract Infection NOS,P/C,1 (<1%) n (%)
same,SAE: Uterine Polyp NOS*,P/C,0 n (%)
same,SAE: Vaginal Cyst*,P/C,0 n (%)
same,TEAEs that led to permanent discontinuation of study medication,P/C,18%
same,Total Number of Subjects with at Least One Serious Adverse Event,P/C,10 (4%) n (%)
same,subjects with at least one TEAE,P/C,78%
same,subjects with at least one treatment-emergent SAE,P/C,4%
same,withdrawal for AE,P/C,17%
same,withdrawal for lack of efficacy,P/C,21%
same,Number of deaths,P/C (N = 279),0 n (%)
same,Number of subjects who permanently discontinued study medication due to a TEAE (as reported on the AE CRF),P/C (N = 279),50 (18) n (%)
same,Number of subjects with at least one AE of special interest,P/C (N = 279),185 (66) n (%)
same,Number of subjects with at least one SAE,P/C (N = 279),10 (4) n (%)
same,Number of subjects with at least one TEAE,P/C (N = 279),217 (78) n (%)
same,Number of subjects with at least one TEAE leading to dose reduction,P/C (N = 279),4 (1) n (%)
same,Number of subjects with at least one related TEAE,P/C (N = 279),150 (54) n (%)
same,Number of subjects with at least one severe TEAE,P/C (N = 279),44 (16) n (%)
same,Number of subjects who died,"P/C, all enrolled",0 n (%)
same,Primary reason for withdrawal: Adverse event and lack of efficacy,"P/C, all enrolled",34 (12) n (%)
same,Primary reason for withdrawal: Baseline complaint/adverse event,"P/C, all enrolled",14 (5) n (%)
same,Primary reason for withdrawal: Lack of efficacy,"P/C, all enrolled",25 (9) n (%)
same,TEAE incidence: blood CK increased,female subjects,1%
same,TEAE incidence: constipation,female subjects,28%
same,TEAE incidence: diarrhea excluding infective,female subjects,9%
same,TEAE incidence: nausea and vomiting symptoms,female subjects,8%
same,TEAE incidence: sinusitis NOS,female subjects,9%
same,TEAE incidence: urinary tract infections,female subjects,8%
same,prevalence of constipation overall,fifth (>12 months) interval,3%
same,prevalence of TEAEs overall,first three-month interval,62%
same,prevalence of constipation overall,first three-month interval,17%
same,subjects discontinued due to AEs,first three-month interval,7%
same,prevalence of TEAEs overall,fourth three-month interval,54%
same,prevalence of constipation overall,fourth three-month interval,2%
same,subjects discontinued due to AEs,fourth three-month interval,2%
same,prevalence of TEAEs overall,last (>12 months) interval,70%
same,TEAE incidence: blood CK increased,male subjects,12%
same,TEAE incidence: constipation,male subjects,15%
same,TEAE incidence: diarrhea excluding infective,male subjects,3%
same,TEAE incidence: nausea and vomiting symptoms,male subjects,3%
same,TEAE incidence: sinusitis NOS,male subjects,3%
same,TEAE incidence: urinary tract infections,male subjects,1%
same,subjects who discontinued due to the SAEs,of 29 subjects with SAEs,Eleven
same,subjects with at least one constipation episode reported as related to study medication,of the 128 subjects with constipation,124 subjects
same,SAE: Abdominal Pain Upper,overall,1 (<1%) n (%)
same,SAE: Adenomyosis*,overall,1 (<1%) n (%)
same,SAE: Angina Pectoris,overall,2 (<1%) n (%)
same,SAE: Appendicitis,overall,1 (<1%) n (%)
same,SAE: Asthma NOS,overall,1 (<1%) n (%)
same,SAE: Benign Ovarian Tumour*,overall,1 (<1%) n (%)
same,SAE: Bladder Prolapse,overall,1 (<1%) n (%)
same,SAE: Bone Neoplasm Malignant,overall,1 (<1%) n (%)
same,SAE: Breast Cancer NOS*,overall,2 (<1%) n (%)
same,SAE: Bronchopneumonia NOS,overall,1 (<1%) n (%)
same,SAE: Calculus Ureteric,overall,1 (<1%) n (%)
same,SAE: Cardiac Disorders,overall,4 (<1%) n (%)
same,SAE: Chest Pain,overall,2 (<1%) n (%)
same,SAE: Cholelithiasis,overall,1 (<1%) n (%)
same,SAE: Colitis Ischaemic,overall,1 (<1%) n (%)
same,SAE: Depression,overall,1 (<1%) n (%)
same,SAE: Endometriosis*,overall,1 (<1%) n (%)
same,SAE: Fibroma NOS,overall,1 (<1%) n (%)
same,SAE: Food Allergy,overall,1 (<1%) n (%)
same,SAE: Gastritis NOS,overall,1 (<1%) n (%)
same,SAE: Gastroenteritis NOS,overall,1 (<1%) n (%)
same,SAE: Gastrointestinal Disorders,overall,4 (<1%) n (%)
same,SAE: General Disorders and Administration Site Conditions,overall,2 (<1%) n (%)
same,SAE: Hallucination NOS,overall,1 (<1%) n (%)
same,"SAE: Hallucination, Auditory",overall,1 (<1%) n (%)
same,SAE: Heat Exhaustion,overall,1 (<1%) n (%)
same,SAE: Hepatitis NOS,overall,1 (<1%) n (%)
same,SAE: Hepatobiliary Disorders,overall,2 (<1%) n (%)
same,SAE: Immune System Disorders,overall,1 (<1%) n (%)
same,SAE: Infections and Infestations,overall,3 (<1%) n (%)
same,"SAE: Injury, Poisoning and Procedural Complications",overall,2 (<1%) n (%)
same,SAE: Irritable Bowel Syndrome Aggravated,overall,1 (<1%) n (%)
same,SAE: Leiomyoma NOS,overall,1 (<1%) n (%)
same,SAE: Loss of Consciousness,overall,2 (<1%) n (%)
same,SAE: Myocardial Infarction,overall,1 (<1%) n (%)
same,"SAE: Neoplasms Benign, Malignant and Unspecified (Incl Cysts and Polyps)",overall,6 (1%) n (%)
same,SAE: Nervous System Disorders,overall,2 (<1%) n (%)
same,SAE: Non-Accidental Overdose,overall,1 (<1%) n (%)
same,SAE: Ovarian Cancer NOS*,overall,1 (<1%) n (%)
same,SAE: Ovarian Cystadenofibroma*,overall,1 (<1%) n (%)
same,SAE: Pregnancy NOS*,overall,1 (<1%) n (%)
same,"SAE: Pregnancy, Puerperium and Perinatal Conditions",overall,1 (<1%) n (%)
same,SAE: Psychiatric Disorders,overall,1 (<1%) n (%)
same,SAE: Psychotic Disorder NOS,overall,1 (<1%) n (%)
same,SAE: Renal and Urinary Disorders,overall,2 (<1%) n (%)
same,SAE: Reproductive System and Breast Disorders,overall,2 (<1%) n (%)
same,"SAE: Respiratory, Thoracic and Mediastinal Disorders",overall,1 (<1%) n (%)
same,SAE: Sinusitis Acute NOS,overall,1 (<1%) n (%)
same,SAE: Status Epilepticus,overall,1 (<1%) n (%)
same,SAE: Suicidal Ideation,overall,1 (<1%) n (%)
same,SAE: Supraventricular Tachycardia,overall,1 (<1%) n (%)
same,SAE: Urinary Tract Infection NOS,overall,1 (<1%) n (%)
same,SAE: Uterine Polyp NOS*,overall,1 (<1%) n (%)
same,SAE: Vaginal Cyst*,overall,1 (<1%) n (%)
same,TEAE incidence: GI disorders,overall,50%
same,TEAE incidence: Infections and infestations,overall,32%
same,TEAE incidence: Investigations,overall,24%
same,TEAE incidence: Musculoskeletal and connective tissue disorders,overall,16%
same,TEAE incidence: Nervous system disorders,overall,12%
same,TEAE incidence: abdominal pain NOS,overall,7%
same,TEAE incidence: back pain,overall,3%
same,TEAE incidence: blood CK increased,overall,5%
same,TEAE incidence: constipation,overall,24%
same,TEAE incidence: diarrhea NOS,overall,6%
same,TEAE incidence: fecal occult blood positive,overall,6%
same,TEAE incidence: flatulence,overall,5%
same,TEAE incidence: headache NOS,overall,6%
same,TEAE incidence: nasopharyngitis,overall,5%
same,TEAE incidence: nausea,overall,5%
same,TEAE incidence: sinusitis NOS,overall,7%
same,TEAE incidence: upper respiratory tract infection NOS,overall,5%
same,TEAE incidence: urinary tract infection NOS,overall,5%
same,TEAEs that led to dose reduction,overall,2%
same,TEAEs that led to permanent discontinuation: GI disorders,overall,12%
same,TEAEs that led to permanent discontinuation: abdominal pain NOS,overall,2%
same,TEAEs that led to permanent discontinuation: diarrhea NOS,overall,1%
same,TEAEs that led to permanent discontinuation: flatulence,overall,1%
same,Total Number of Subjects with at Least One Serious Adverse Event,overall,29 (5%) n (%)
same,discontinued study medication due to constipation,overall,5%
same,dose reduction due to constipation,overall,1%
same,"overall incidence of TEAEs possibly, probably, or unlikely related to study medication",overall,56%
same,related TEAE: abdominal pain NOS,overall,6%
same,related TEAE: blood CK increased,overall,3%
same,related TEAE: constipation,overall,23%
same,related TEAE: diarrhea NOS,overall,3%
same,related TEAE: fecal occult blood positive,overall,3%
same,related TEAE: flatulence,overall,4%
same,related TEAE: headache NOS,overall,4%
same,related TEAE: nausea,overall,3%
same,severe TEAE: abdominal pain NOS,overall,2%
same,severe TEAE: constipation,overall,3%
same,severe TEAE: headache NOS,overall,1%
same,special interest TEAEs,overall,69%
same,subjects with at least one TEAE,overall,82%
same,subjects with severe TEAEs,overall,18%
same,withdrawal for AE (combined categories),overall,15%
same,withdrawal for lack of efficacy (combined categories),overall,18%
same,prevalence of TEAEs overall,second three-month interval,55%
same,prevalence of constipation overall,second three-month interval,9%
same,subjects discontinued due to AEs,second three-month interval,6%
same,prevalence of TEAEs overall,third three-month interval,54%
same,prevalence of constipation overall,third three-month interval,5%
same,subjects discontinued due to AEs,third three-month interval,2%
